Data as given in paper doi:10.1101/2024.12.09.627564, “Cannabinoid inhibition of mechanosensitive K^+ channels” (bioRxiv, 2024).
Numbering of substitutions follows the chain as printed.

Assays:
TRAAKG158D = target: T1, TRAAKG158D (Homo sapiens, UniProt Q9NYG8, G132D); experiment: Excised patch recording of TRAAK mutant G158D; assay type: biochemical
T1 construct: The transcribed messages encode H. sapiens TRAAK amino acids 1–393; expressed in transfected cells; host or cells: Xenopus laevis oocytes, cRNA injection
T1 sequence (Q9NYG8 1-393 G132D): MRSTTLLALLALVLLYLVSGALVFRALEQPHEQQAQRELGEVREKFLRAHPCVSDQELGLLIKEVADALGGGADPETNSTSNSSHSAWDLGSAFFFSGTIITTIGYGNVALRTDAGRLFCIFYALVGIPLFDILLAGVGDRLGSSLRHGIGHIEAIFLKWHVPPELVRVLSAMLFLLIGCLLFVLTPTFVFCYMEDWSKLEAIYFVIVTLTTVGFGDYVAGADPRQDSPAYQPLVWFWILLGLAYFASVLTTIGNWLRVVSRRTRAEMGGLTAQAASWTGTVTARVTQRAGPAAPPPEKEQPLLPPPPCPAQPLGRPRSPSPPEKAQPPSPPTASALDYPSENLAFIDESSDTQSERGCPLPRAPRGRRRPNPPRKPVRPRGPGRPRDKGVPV
From the text: (§1) For patch clamp recording from Xenopus oocytes, genes encoding full-length Homo sapiens TRAAK (UniProt Q9NYG8–2), TREK-1 (UniProt O95069), and TREK-2 (UniProt P57789) were codon optimized for eukaryotic expression, synthesized (Genewiz), and cloned into a modified pGEMHE vector using Xho1 and EcoR1 restriction sites. The transcribed messages encode H. sapiens TRAAK amino acids 1–393, TREK-1 amino acids 1–426, or TREK-2 amino acids 1–538 with an additional three amino acids (SNS) at the C terminus. TRAAK mutants were introduced by polymerase chain reaction (PCR). Linearized DNA was transcribed in vitro using T7 polymerase. Complementary RNA (0.1 to 10 ng for TRAAK, TREK-1, TREK-2, and mutants) in 50 nL H2O was injected into Xenopus laevis oocytes extracted from anesthetized frogs. Currents were recorded at 25 °C from inside-out patches excised from oocytes 1 to 5 d after RNA injection. The pipette solution contained 15 mM KCl, 135 mM NaCl, 2 mM MgCl2, and 10 mM HEPES (pH = 7.4 with KOH) and the bath solution contained 150 mM KCl and 10 mM HEPES (pH = 7.1 with KOH). Borosilicate glass pipettes were pulled to 2–5 MΩ resistance.
(§2) Patches were evaluated with voltage-step protocols to confirm TRAAK expression and minimal non-specific leak based on reversal potential. Currents were recorded using an Axopatch 200B amplifier (Molecular Devices) at a bandwidth of 1 kHz and digitized with an Digidata 1550B (Molecular Devices) at 100–500 kHz using pClamp10.7 software. Pressure was applied with a second-generation high-speed pressure clamp device (HSPC-2-SB, ALA Scientific Instruments). Aggregated data were from patches from n ≥ 2 different cells on different days. No relevant differences were observed between patches from different cells. In an effort to minimize variability associated with differences in resting membrane tension, we targeted patches with low basal curvature and low resting channel activity and ensured measured pressure difference across the patch was as close to zero as possible at rest to prevent mechanical activation of channels. Data were analyzed using Clampfit 10.7, Excel, and Graphpad Prism software. For voltage families, the data were decimated 100x and plotted in Prism. […]
(§3) To avoid cannabinoid absorption to plastic, cannabinoid solutions were made in glass vials and diluted by weight, perfusion was performed using glass tubing pulled from borosilicate glass Pasteur pipettes (Fisherbrand, Cat# 13–678-20C), and recordings were performed in glass chambers. Channel activity was continuously recorded during perfusion steps. […]
The effects of cannabinoids on channel activity were quantified by the reduction in channel current evoked at 0 mV during a gap-free recording or during 200 ms long voltage families with steps ranging from −100 to +100 mV. […]

TRAAKA270P = target: T2, TRAAKA270P (Homo sapiens, UniProt Q9NYG8, A244P); experiment: Excised patch recording of TRAAK mutant A270P; assay type: biochemical
T2 construct: The transcribed messages encode H. sapiens TRAAK amino acids 1–393; expressed in transfected cells; host or cells: Xenopus laevis oocytes, cRNA injection
T2 sequence (Q9NYG8 1-393 A244P): T1 sequence (Q9NYG8 1-393 G132D) with D132G, A244P
From the text: as §1, with “The pipette solution contained 15 mM KCl, 135 mM NaCl, 2 mM MgCl2, and 10 mM HEPES (pH = 7.4 with KOH) and the bath solution contained 150 mM KCl and 10 mM HEPES (pH = 7.1 with KOH). Borosilicate glass pipettes were pulled to 2–5 MΩ resistance.” left out
as §2, with “Pressure was applied with a second-generation high-speed pressure clamp device (HSPC-2-SB, ALA Scientific Instruments). Aggregated data were from patches from n ≥ 2 different cells on different days. No relevant differences were observed between patches from different cells.” left out, “software.” for “software. For voltage families, the data were decimated 100x and plotted in Prism.”
as §3

TRAAKA198E = target: T3, TRAAKA198E (Homo sapiens, UniProt Q9NYG8, A172E); experiment: Excised patch recording of TRAAK mutant A198E; assay type: biochemical
T3 construct: The transcribed messages encode H. sapiens TRAAK amino acids 1–393; expressed in transfected cells; host or cells: Xenopus laevis oocytes, cRNA injection
T3 sequence (Q9NYG8 1-393 A172E): T1 sequence (Q9NYG8 1-393 G132D) with D132G, A172E
From the text: as §1, with “The pipette solution contained 15 mM KCl, 135 mM NaCl, 2 mM MgCl2, and 10 mM HEPES (pH = 7.4 with KOH) and the bath solution contained 150 mM KCl and 10 mM HEPES (pH = 7.1 with KOH). Borosilicate glass pipettes were pulled to 2–5 MΩ resistance.” left out
as §2, with “Pressure was applied with a second-generation high-speed pressure clamp device (HSPC-2-SB, ALA Scientific Instruments). Aggregated data were from patches from n ≥ 2 different cells on different days. No relevant differences were observed between patches from different cells.” left out, “software.” for “software. For voltage families, the data were decimated 100x and plotted in Prism.”
as §3

[1] = as measured in plasma or estimated in brain tissue; cited from earlier work

Which results are given for C=C(C)[C@@H]1CCC(C)=C[C@H]1c1c(O)cc(CCCCC)cc1O [CBD, Cannabidiol]?
EC50 (TRAAKG158D): 1.03 ± 0.22 µM; IC50 (TRAAKG158D): 1.03 ± 0.22 µM; fold less sensitive than wild-type TRAAK (TRAAKG158D; G158D vs wild-type): ~ 7.1 fold; inhibition at 10 µM (TRAAKG158D; highest CBD concentration tested, 10 μM, read-out: inhibition plateauing at % of initial current): ~45%; IC50 (TRAAKA270P): 1.12 ± 0.04 µM; inhibition of channel activity at high concentration (TRAAKA270P; 10 μM CBD): fully inhibited; fold less sensitive than wild-type TRAAK (TRAAKA270P; A270P vs wild-type): ~ 8 fold; IC50 (TRAAKA198E): 0.496 ± 0.026 µM; inhibition of channel activity at high concentration (TRAAKA198E; 10 μM CBD): fully inhibited; fold less sensitive than wild-type TRAAK (TRAAKA198E; A198E vs wild-type): ~ 4 fold; concentration in treated patients [1]: 0.05 to 0.1 µM
